pIC50: −log10 of the molar value.
System: MDA-MB-468 spheroids with HUVEC/MSC, viability
Assay: Anticancer human tumor MDA-MB-468 cell line growth inhibition [PI3K];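 note: spheroids exposed to agents for seven days before readout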;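 for viability, T/C: 100% = DMSO vehicle control viability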
Conditions: for pIC50: curve of first compound; for viability, T/C: stronger effect = lower value
Description: Combinatorial screen of targeted agents with the PI3K inhibitors inavolisib, alpelisib, duvelisib, and copanlisib in multi-cell type tumor spheroids
A high-throughput screen of multi-cell type tumor spheroids was designed to identify active combinations of targeted small molecules and PI3K pathway inhibitors. Complex spheroids include a stromal component modeled by human endothelial cells (HUVEC) and fibroblasts modeled by human mesenchymal stem cells (MSCs). The concentration ranges selected for each drug and investigational agent were based upon clinically achievable concentrations if the clinical Cmax of the agent was known.
Compounds. The drugs and investigational agents: inavolisib (NSC800729), alpelisib (NSC765974), duvelisib (NSC772469), copanlisib (NSC816437), ipatasertib (NSC767898), afuresertib (NSC778305), talazoparib (NSC767125), sapanisertib (NSC764658), selumetinib (NSC741078), tovorafenib (DAY101, NSC766906), vemurafenib (NSC761431), ravoxertinib (NSC781343), sotorasib (NSC818433), MRTX1133 (NSC 836407), abemaciclib (NSC 768073), palbociclib (NSC758247), venetoclax (NSC 766270), SY5609 (NSC837396), enzalutamide (NSC755605), and darolutamide (NSC825331), were obtained from the National Cancer Institute (NCI) Developmental Therapeutics Program Chemical Repository. The FDA-approved anticancer drug set is available from the NCI Developmental Therapeutics Program. […] The stock solutions were prepared in dimethyl sulfoxide (DMSO, Sigma-Aldrich, St. Louis, MO, cat. D2650) at 800-fold the tested concentration and stored at -70 degrees C prior to their use. All drugs and investigational agents were tested over a range starting from a high concentration at or near the clinical Cmax and decreasing in half-log increments. If the clinical Cmax for an agent had not been determined, the highest concentration tested was 10 microM.
Cell Culture. All cells were maintained in an incubator at 37 degrees C and 5% CO2 with 95% humidity. The PDC lines were cultured according to standard operating procedures established by the NCI PDMR (https://pdmr.cancer.gov/sops/default.htm). All PDCs were thawed and cultured in Matrigel-coated flasks prepared with a working solution of 1X Ham's F-12 nutrient mix, without supplementation (Invitrogen, Waltham, MA, cat. 11765054), 100 U/mL penicillin-streptomycin (Invitrogen, cat. 15140122), and 2.5% Matrigel (Corning Inc., Corning, NY, cat. 354248) for the first three passages. The 354836-022-R-J1-PDC, 475296-252-R-J1-PDC, and 997726-040-R-J2-PDC lines were cultured in 6A media, which includes advanced DMEM/F-12 (Thermo Fisher Scientific, cat. 12634028), 10 mM HEPES (Thermo Fisher Scientific, cat. 15630080), 1X GlutaMAX supplement (Thermo Fisher Scientific, cat. 35050061), 0.1 mg/mL primocin (InvivoGen, San Diego, CA, cat. ant-pm-2), 10% defined fetal bovine serum, heat inactivated (HyClone Laboratories Inc., Logan, UT, cat. SH30070.03HI), 50% L-WRN conditioned media (ATCC, cat. CRL-3276), 1.25 mM N-Acetyl-L-cysteine (Sigma-Aldrich, cat. A9165), 10 mM nicotinamide (Sigma-Aldrich, cat. N0636), 1X B-27 supplement (Thermo Fisher Scientific, cat. 17504044), 1X N-2 supplement (Thermo Fisher Scientific, cat. 17502048), and 10 microM Y-27632 dihydrochloride (Tocris Bioscience, Bristol, United Kingdom, cat. 1254). The 624824-186-R-J2-PDC line was cultured in 6C/Colon 1B media, which includes all 6A media components plus 50 ng/mL human EGF recombinant protein (Thermo Fisher Scientific, cat. PHG0311). […]

[1] = second compound 0.0316 µM, first compound 0.0316 µM
[2] = second compound 0.0316 µM, first compound 0.1 µM
[3] = second compound 0.1 µM, first compound 0.0316 µM
[4] = second compound 0.1 µM, first compound 0.1 µM
[5] = second compound 0.316 µM, first compound 0.0316 µM
[6] = second compound 0.316 µM, first compound 0.1 µM
[7] = second compound 1 µM, first compound 0.0316 µM
[8] = second compound 1 µM, first compound 0.1 µM

## C=CC(=O)N1CCN(c2nc(=O)n(-c3c(C)ccnc3C(C)C)c3nc(-c4c(O)cccc4F)c(F)cc23)C(C)C1 (centres undefined) + COc1c(OCCCN2CCOCC2)ccc2c3n(c(=NC(=O)c4cnc(N)nc4)nc12)CCN3
Second compound 0.00316 µM
  pIC50: < 5.00
Second compound 0.01 µM
  pIC50: < 5.00
Second compound 0.0316 µM
  pIC50: < 5.00
Second compound 0.1 µM
  pIC50: < 5.00
Second compound 0.316 µM
  pIC50: > 7.50
Second compound 1 µM
  pIC50: > 7.50
Second compound 0.00316 µM, first compound 0.0316 µM
  viability, T/C: 92%
Second compound 0.00316 µM, first compound 0.1 µM
  viability, T/C: 92.9%
Second compound 0.00316 µM, first compound 0.316 µM
  viability, T/C: 97.5%
Second compound 0.00316 µM, first compound 1 µM
  viability, T/C: 109%
Second compound 0.00316 µM, first compound 3.16 µM
  viability, T/C: 104%
Second compound 0.00316 µM, first compound 10 µM
  viability, T/C: 79.1%
Second compound 0.01 µM, first compound 0.0316 µM
  viability, T/C: 81.1%
Second compound 0.01 µM, first compound 0.1 µM
  viability, T/C: 80.5%
Second compound 0.01 µM, first compound 0.316 µM
  viability, T/C: 102%
Second compound 0.01 µM, first compound 1 µM
  viability, T/C: 97%
Second compound 0.01 µM, first compound 3.16 µM
  viability, T/C: 99.7%
Second compound 0.01 µM, first compound 10 µM
  viability, T/C: 70.1%
[1]
  viability, T/C: 75.2%
[2]
  viability, T/C: 73.4%
Second compound 0.0316 µM, first compound 0.316 µM
  viability, T/C: 79.8%
Second compound 0.0316 µM, first compound 1 µM
  viability, T/C: 89.7%
Second compound 0.0316 µM, first compound 3.16 µM
  viability, T/C: 80.2%
Second compound 0.0316 µM, first compound 10 µM
  viability, T/C: 65%
[3]
  viability, T/C: 56.7%
[4]
  viability, T/C: 58.4%
Second compound 0.1 µM, first compound 0.316 µM
  viability, T/C: 50.9%
Second compound 0.1 µM, first compound 1 µM
  viability, T/C: 63.1%
Second compound 0.1 µM, first compound 3.16 µM
  viability, T/C: 61.5%
Second compound 0.1 µM, first compound 10 µM
  viability, T/C: 41.3%
[5]
  viability, T/C: 29.9%
[6]
  viability, T/C: 26.6%
Second compound 0.316 µM, first compound 0.316 µM
  viability, T/C: 27.8%
Second compound 0.316 µM, first compound 1 µM
  viability, T/C: 31.4%
Second compound 0.316 µM, first compound 3.16 µM
  viability, T/C: 28.2%
Second compound 0.316 µM, first compound 10 µM
  viability, T/C: 18.4%
[7]
  viability, T/C: 4.14%
[8]
  viability, T/C: 3.02%
Second compound 1 µM, first compound 0.316 µM
  viability, T/C: 3.41%
Second compound 1 µM, first compound 1 µM
  viability, T/C: 3.9%
Second compound 1 µM, first compound 3.16 µM
  viability, T/C: 3.76%
Second compound 1 µM, first compound 10 µM
  viability, T/C: 2.73%

## CC(C)n1nc(-c2ccc3oc(N)nc3c2)c2c(N)ncnc21 + CC(Nc1ncnc2nc[nH]c12)c1cc2cccc(Cl)c2c(=O)n1-c1ccccc1
Second compound 0.0316 µM
  pIC50: 7.38
Second compound 0.1 µM
  pIC50: 7.46
Second compound 0.316 µM
  pIC50: 7.42
Second compound 1 µM
  pIC50: 7.62
Second compound 3.16 µM
  pIC50: 7.95
Second compound 10 µM
  pIC50: > 9.50
Second compound 0.0316 µM, first compound 0.000316 µM
  viability, T/C: 81.5%
Second compound 0.0316 µM, first compound 0.001 µM
  viability, T/C: 81.4%
Second compound 0.0316 µM, first compound 0.00316 µM
  viability, T/C: 96.1%
Second compound 0.0316 µM, first compound 0.01 µM
  viability, T/C: 82.2%
[1]
  viability, T/C: 60%
[2]
  viability, T/C: 19.5%
Second compound 0.1 µM, first compound 0.000316 µM
  viability, T/C: 77.6%
Second compound 0.1 µM, first compound 0.001 µM
  viability, T/C: 91.5%
Second compound 0.1 µM, first compound 0.00316 µM
  viability, T/C: 77.9%
Second compound 0.1 µM, first compound 0.01 µM
  viability, T/C: 66%
[3]
  viability, T/C: 54.4%
[4]
  viability, T/C: 19.8%
Second compound 0.316 µM, first compound 0.000316 µM
  viability, T/C: 91.6%
Second compound 0.316 µM, first compound 0.001 µM
  viability, T/C: 59.7%
Second compound 0.316 µM, first compound 0.00316 µM
  viability, T/C: 77.4%
Second compound 0.316 µM, first compound 0.01 µM
  viability, T/C: 73.8%
[5]
  viability, T/C: 55.2%
[6]
  viability, T/C: 17.4%
Second compound 1 µM, first compound 0.000316 µM
  viability, T/C: 69.3%
Second compound 1 µM, first compound 0.001 µM
  viability, T/C: 68.4%
Second compound 1 µM, first compound 0.00316 µM
  viability, T/C: 64.1%
Second compound 1 µM, first compound 0.01 µM
  viability, T/C: 57%
[7]
  viability, T/C: 49.6%
[8]
  viability, T/C: 15.8%
Second compound 3.16 µM, first compound 0.000316 µM
  viability, T/C: 50.2%
Second compound 3.16 µM, first compound 0.001 µM
  viability, T/C: 54.8%
Second compound 3.16 µM, first compound 0.00316 µM
  viability, T/C: 57.4%
Second compound 3.16 µM, first compound 0.01 µM
  viability, T/C: 50.9%
Second compound 3.16 µM, first compound 0.0316 µM
  viability, T/C: 36.2%
Second compound 3.16 µM, first compound 0.1 µM
  viability, T/C: 13.2%
Second compound 10 µM, first compound 0.000316 µM
  viability, T/C: 41.5%
Second compound 10 µM, first compound 0.001 µM
  viability, T/C: 39.7%
Second compound 10 µM, first compound 0.00316 µM
  viability, T/C: 38.8%
Second compound 10 µM, first compound 0.01 µM
  viability, T/C: 40%
Second compound 10 µM, first compound 0.0316 µM
  viability, T/C: 26.4%
Second compound 10 µM, first compound 0.1 µM
  viability, T/C: 9.66%
